Counter-ions that a name gives are not always drawn.
Legend:
[1] = system: patient diagnosed as chronic sinusitis; assay: Test Example 1: effect of olopatadine hydrochloride on chronic sinusitis, one patient, CT and subjective symptoms; type: in vivo, human; conditions: for improvement of symptoms (polyp, headache, right nasal obstruction, purulent nasal discharge, closure of right olfactory cleft): administration of Klaricid and Neuzym for 2 months or more, same patient, before olopatadine hydrochloride
Experimental: A patient diagnosed as chronic sinusitis was orally daily administered with olopatadine hydrochloride (Allelock™ 5 mg tablet; Kyowa Hakko Kogyo Co., Ltd.) alone in a dose of one tablet two times (after breakfast and before bedtime) a day (10 mg/day) everyday. Before the administration of olopatadine hydrochloride and 2 months after the administration, computed tomography (CT) was performed to observe changes in symptoms. […] In administration of Klaricid™ (general name: clarithromycin) and Neuzym™ (general name: lysozyme chloride) for 2 months or more, improvement of these symptoms were not observed.

[2] = system: patients with chronic sinusitis complicated with perennial allergic rhinitis; assay: Test Example 2: degree of improvement in symptoms, 24 patients, eighth week; type: in vivo, human; conditions: oral 10 mg/day, other medicines may be combined
Experimental: Patients (24 patients, average age 33.8 years old, duration 61.5±59.7 days) with chronic sinusitis complicated with perennial allergic rhinitis were orally administered with olopatadine hydrochloride (Allelock™ 5 mg tablet; Kyowa Hakko Kogyo Co., Ltd.) in a dose of one tablet two times-(after breakfast and before bedtime) a day (10 mg/day) everyday. In this case, Mucodyne™ (general name: carbocysteine), Dasen™ (general name: serrapeptase), Polaramine™ (general name: d-chlorpheniramine maleate), Klaricid™ (general name: clarithromycin) or the like may be combined. The combined use with such a medicine was filled in a survey sheet. Such a medicine had been given for treatment before this test. At the eighth week of the administration, degrees of improvement in 1) sneezing, 2) nasal drip, 3) nasal obstruction, 4) interference with daily life, 5) mucosal swelling, 6) headache and head heaviness, and 7) postnasal drip were examined for each patient. The degree of each symptom determined with reference according to “Nasal Allergy Diagnosis Guideline for 2002 (Revised Fourth Edition)”, and the degree of improvement in each symptom was evaluated for each patient having a corresponding symptom before the administration on the basis of the four stages, i.e., disappearance, significant improvement, improvement, and no change. In the case of more than improvement (disappearance, significant improvement, or improvement), the rate of improvement was evaluated as “effective” and calculated as a rate (%) of an effective number of patients relative to the number of patients (number of cases) having a corresponding symptom before administration.

[3] = system: patient diagnosed as chronic sinusitis; assay: Test Example 3: effect 2 on chronic sinusitis, one patient, 21-day schedule, plain radiography; type: in vivo, human
Experimental: A patient diagnosed as chronic sinusitis was administered with olopatadine hydrochloride (Allelock™ 5 mg tablet; Kyowa Hakko Kogyo Co., Ltd.) according to the prescription schedule below (21 days in total). 1. First 7 Days (Co-Administration) Three medicines were dosed together according to the following prescription. Also, frequently used SG granules were also prescribed. Olopatadine hydrochloride 5 mg tablet: oral dose of one tablet two times a day for 7 days (10 mg/day) Gatiflo™ (general name: gatifloxacin) 200 mg tablet: oral dose of one tablet two times a day for 4 days (400 mg/day) Mucodyne™ (general name: carbocysteine) 500 mg tablet: oral dose of one tablet three times a day for 7 days (1500 mg/day) 2. Next 14 Days (Single Administration of Olopatadine Hydrochloride) Furthermore, olopatadine hydrochloride was given according to the following prescription: Olopatadine hydrochloride 5 mg tablet: oral dose of one tablet two times a day for 14 days (10 mg/day) Plain radiography was conducted before the administration of the above medicines and 21 days after the administration to observe changes in the symptoms.

[4] = system: patient diagnosed as chronic sinusitis; assay: Test Example 4: effect 3 on chronic sinusitis, one patient, 35-day schedule, plain radiography; type: in vivo, human
Experimental: A patient diagnosed as chronic sinusitis was administered with olopatadine hydrochloride (Allelock™ 5 mg tablet; Kyowa Hakko Kogyo Co., Ltd.) according to the prescription schedule below (35 days in total). 1. First 7 Days (Co-Administration) Three medicines were dosed together according to the following prescription. Olopatadine hydrochloride 5 mg tablet: oral dose of one tablet two times a day for 7 days (10 mg/day) Gatiflo™ (general name: gatifloxacin) 200 mg tablet: oral dose of one tablet two times a day for 4 days (400 mg/day) Mucodyne™ (general name: carbocysteine) 500 mg tablet: oral dose of one tablet three times a day for 7 days (1500 mg/day) 2. Next 14 Days (Co-Administration) Two medicines were further dosed together according to the following prescription. Olopatadine hydrochloride 5 mg tablet: oral dose of one tablet two times a day for 14 days (10 mg/day) Mucodyne™ 500 mg table: oral dose of one tablet three times a day for 14 days (1500 mg/day) 3. Next 14 Days (Single Administration) Furthermore, olopatadine hydrochloride was given according to the following prescription: Olopatadine hydrochloride 5 mg table: oral dose of one tablet two times a day for 14 days (10 mg/day) Plain radiography was conducted before the administration of the above medicines and 35 days after the administration to observe changes in the symptoms.

[5] = system: patient with chronic sinusitis complicated with allergic rhinitis; assay: Test Example 5: transitions of symptoms, CT and plain radiography, one patient; type: in vivo, human; parameters: key to Color of inferior turbinate mucosa (objective symptom grade): +++: (Pale); ++: (Red); +: (Light red); −: (Normal); key to Postnasal drip (subjective symptom grade): +++: Always; ++: Frequently; +: Sometimes; −: No
Experimental: A patient with chronic sinusitis complicated with allergic rhinitis was orally administered with olopatadine hydrochloride (Allelock™ 5 mg tablet; Kyowa Hakko Kogyo Co., Ltd.) alone in a dose of one tablet two times a day for 2 months (10 mg/day). The patient had developed serious sneezing, nasal obstruction, and postnasal drip about 5 and half years ago. The patient discontinued treatment when the subjective symptoms were relieved by intermittent medication. However, improvements in the symptoms were not observed before the start of treatment by administration of the above olopatadine hydrochloride. In addition, in a nasal discharge eosinophil test (an intermediate state between clusters of eosinophils and observable weak dispersion of eosinophils in nasal discharge) and a scratch test (house dust, candida, cedar, and orchard grass), the patient was positive before the start of administration, and the chronic sinusitis of the patient was recognized to be complicated with allergic rhinitis. […] The degree of each symptom was decided on the basis of Tables 3 and 4 in reference to “Nasal Allergy Diagnosis Guideline for 2002 (Revised Fourth Edition)”. In addition, computed tomography (CT) was conducted before the administration of olopatadine hydrochloride and 1 month after and 2 months after the administration, and plain radiography (Waters method) was conducted before the administration of olopatadine hydrochloride and 2 months after the administration to observe changes in the symptoms.

[6] = system: allergic rhinitis; conditions: Phase III test; cited from earlier work
[7] = system: experimental allergic rhinitis model; conditions: guinea pigs; cited from earlier work
[8] = oral 10 mg/day alone for 2 months, one patient
[9] = first 7 days, co-administration with Gatiflo (gatifloxacin) and Mucodyne (carbocysteine), oral 10 mg/day
[10] = next 14 days, single administration, oral 10 mg/day
[11] = next 14 days, co-administration with Mucodyne (carbocysteine), oral 10 mg/day
[12] = Two weeks after administration, oral 10 mg/day alone, before administration ++
[13] = single administration for 2 months, oral 10 mg/day

For `CC[C@H]1OC(=O)[C@H](C)[C@@H](O[C@H]2C[C@@](C)(OC)[C@@H](O)[C@H](C)O2)[C@H](C)[C@@H](O[C@@H]2O[C@H](C)C[C@H](N(C)C)[C@H]2O)[C@](C)(OC)C[C@@H](C)C(=O)[C@H](C)[C@@H](O)[C@]1(C)O` [Klaricid, clarithromycin], the “improvement of symptoms (polyp, headache, right nasal obstruction, purulent nasal discharge, closure of right olfactory cleft)” value [1] was “not observed”.
For `CN(C)CC/C=C1/c2ccccc2COc2ccc(CC(=O)O)cc21` [olopatadine hydrochloride], the “polyp and soft-tissue density mass which filled the right nasal cavity (CT image)” value [1, 8] was “substantially disappeared”, the “soft-tissue density area which filled the right ethmoidal, right sphenoidal and right frontal sinus (CT image)” value [1, 8] was “substantially disappeared” and the “subjective symptoms such as nasal drip and headache” value [1, 8] was “disappeared”. The “swelling of the inside wall toward the nasal cavity side, closure of the right olfactory cleft due to mucosal thickening (CT image)” value [1, 8] was “relieved”, the “Postnasal drip: Rate of improvement” value ([2]; 3 cases) was 100% and the “Postnasal drip: patients with Disappearance” value ([2]; 3 cases) was 3. The “Postnasal drip: patients with Improvement” value ([2]; 3 cases) was 0, the “Postnasal drip: patients with No change” value ([2]; 3 cases) was 0 and the “Postnasal drip: patients with Significant improvement” value ([2]; 3 cases) was 0. The “Headache, head heaviness: Rate of improvement” value ([2]; 5 cases) was 100%, the “Headache, head heaviness: patients with Disappearance” value ([2]; 5 cases) was 5 and the “Headache, head heaviness: patients with Improvement” value ([2]; 5 cases) was 0. The “Headache, head heaviness: patients with No change” value ([2]; 5 cases) was 0, the “Headache, head heaviness: patients with Significant improvement” value ([2]; 5 cases) was 0 and the “Sneezing: Rate of improvement” value ([2]; 12 cases) was 91.7%. For the same molecule, the “Sneezing: patients with Disappearance” value ([2]; 12 cases) was 8, the “Sneezing: patients with Improvement” value ([2]; 12 cases) was 3 and the “Sneezing: patients with No change” value ([2]; 12 cases) was 1. The “Sneezing: patients with Significant improvement” value ([2]; 12 cases) was 0, the “Nasal drip: Rate of improvement” value ([2]; 15 cases) was 73.3% and the “Nasal drip: patients with Disappearance” value ([2]; 15 cases) was 4. For the same molecule, the “Nasal drip: patients with Improvement” value ([2]; 15 cases) was 5, the “Nasal drip: patients with No change” value ([2]; 15 cases) was 4 and the “Nasal drip: patients with Significant improvement” value ([2]; 15 cases) was 2. For the same molecule, the “Interference with daily life: Rate of improvement” value ([2]; 16 cases) was 87.5%, the “Interference with daily life: patients with Disappearance” value ([2]; 16 cases) was 3 and the “Interference with daily life: patients with Improvement” value ([2]; 16 cases) was 8. The “Interference with daily life: patients with No change” value ([2]; 16 cases) was 2, the “Interference with daily life: patients with Significant improvement” value ([2]; 16 cases) was 3 and the “Mucosal Swelling: Rate of improvement” value ([2]; 16 cases) was 87.5%. The “Mucosal Swelling: patients with Disappearance” value ([2]; 16 cases) was 0, the “Mucosal Swelling: patients with Improvement” value ([2]; 16 cases) was 13 and the “Mucosal Swelling: patients with No change” value ([2]; 16 cases) was 2. For the same molecule, the “Mucosal Swelling: patients with Significant improvement” value ([2]; 16 cases) was 1, the “Nasal obstruction: Rate of improvement” value ([2]; 16 cases) was 87.5% and the “Nasal obstruction: patients with Disappearance” value ([2]; 16 cases) was 4. The “Nasal obstruction: patients with Improvement” value ([2]; 16 cases) was 7, the “Nasal obstruction: patients with No change” value ([2]; 16 cases) was 2 and the “Nasal obstruction: patients with Significant improvement” value ([2]; 16 cases) was 3. For the same molecule, the “shadows in the plain radiograph indicating sinusitis inflammation in the ethmoidal sinus and right and left maxillary sinuses” value ([3]; after a total of 21 days (7 days co-administration, 14 days single)) was “completely disappeared”, the “cheek pains (facial pain) and headache” value [3, 9] was “disappeared” and the “nasal symptoms such as purulent nasal discharge and nasal obstruction” value [3, 9] was “improved”. The “nasal mucosal swelling and the like” value [3, 10] was “unobserved”, the “nasal symptoms such as purulent nasal discharge and nasal obstruction” value [3, 10] was “disappeared” and the “shadows in the plain radiograph indicating sinusitis inflammation in the ethmoidal sinus and right and left maxillary sinuses” value ([4]; after a total of 35 days) was “completely disappeared”. For the same molecule, the “left cheek pain (facial pain) and malaise” value [4, 9] was “disappeared”, the postnasal drip [4, 9] was “not improved” and the purulent nasal discharge [4, 9] was “decreased and substantially disappeared”. The all subjective symptoms ([4]; last 14 days, single administration, oral 10 mg/day) was “disappeared”, the “nasal mucosal swelling and the like” value [4, 11] was “disappeared” and the “nasal symptoms such as purulent nasal discharge and postnasal drip” value [4, 11] was “disappeared”. The “Color of inferior turbinate mucosa (objective symptom grade)” value ([5]; One month after administration, oral 10 mg/day alone, before administration ++) was “−”, the “Color of inferior turbinate mucosa (objective symptom grade)” value [5, 12] was “−” and the “Postnasal drip (subjective symptom grade)” value [5, 12] was “+”. For the same molecule, the “mucosal swelling in the ethmoidal sinus and the maxillary sinus (CT image)” value ([5]; single administration for 1 month, oral 10 mg/day) was “significantly relieved”, the “mucosal swelling in the ethmoidal sinus and the maxillary sinus (CT image)” value [5, 13] was “substantially disappeared” and the “shadows observed in the maxillary sinus indicating inflammation of chronic sinusitis (plain radiograph)” value [5, 13] was “disappeared”.
For `CN(C)CC/C=C1/c2ccccc2COc2ccc(CC(=O)O)cc21` [compound 1, (Z)-11-(3-dimethylaminopropylidene)-6,11-dihydrodibenzo[b,e]oxepine-2-acetic acid], the “nasal congestion of allergic rhinitis” value [6] is given as “highly improve” and the nasal congestion reaction [7] is given as “inhibitory action”.
For lysozyme chloride [Neuzym], the “improvement of symptoms (polyp, headache, right nasal obstruction, purulent nasal discharge, closure of right olfactory cleft)” value [1] was “not observed”.

From patent US20070225356A1, “Preventive and/or Therapeutic Agent for Chronic Sinusitis” (Kyowa Hakko Kogo Co., Ltd, priority 2004, published 2007)
